Experimental data published in US11819503B2 (priority 2019, dated 2023).
Converted amounts (≈) assume the structure as drawn. “And” between values parts separate entries of the source, which are not always exact repeats. Equal values may be shown once. “Also recorded” adds a separate entry of the source.

Legend:
C. immitis [1] = system: C. immitis; set-up: species or system ICR mice; conditions: mouse, in vivo
C. immitis [2] = system: C. immitis; set-up: species or system ICR mice; conditions: mouse, in vivo; remark: listed apart in the source
C. immitis [3] = system: C. immitis; set-up: species or system ICR mice; conditions: mouse, in vivo; remark: listed apart in the source
[4] = system: C. immitis (isolate UTHSCSA DI17-143); assay: microbe, parasite or virus in culture; type: cell-based; conditions: Coccidioides immitis
[5] = target: recombinant human enzyme (dihydroorotate dehydrogenase) (Homo sapiens, UniProt Q02127); conditions: cited from earlier work
recombinant human enzyme (dihydroorotate dehydrogenase), sequence (Q02127 whole entry): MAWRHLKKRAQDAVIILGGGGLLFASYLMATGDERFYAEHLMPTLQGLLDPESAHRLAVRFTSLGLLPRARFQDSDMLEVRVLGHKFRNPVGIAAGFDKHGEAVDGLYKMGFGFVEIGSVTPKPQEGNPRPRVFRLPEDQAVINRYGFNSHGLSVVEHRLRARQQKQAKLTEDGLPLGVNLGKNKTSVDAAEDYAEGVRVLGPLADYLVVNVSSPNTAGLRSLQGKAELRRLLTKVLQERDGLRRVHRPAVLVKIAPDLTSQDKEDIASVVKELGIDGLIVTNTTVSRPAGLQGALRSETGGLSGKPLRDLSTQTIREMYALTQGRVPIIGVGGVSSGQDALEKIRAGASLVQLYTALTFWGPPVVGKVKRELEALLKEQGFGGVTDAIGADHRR

coccidioidomycosis = conditions: human, in vivo
[6] = mouse, in vivo, po
[7] = system: All Coccidioides isolates (n = 59); assay: microbe, parasite or virus in culture; type: cell-based, Coccidioides species; conditions: for MIC: read-out: GM MIC
[8] = system: dihydroorotate dehydrogenase in yeast, including Candida and Cryptococcus species; conditions: cited from earlier work
[9] = system: Coccidioides immitis (n = 21); assay: microbe, parasite or virus in culture; type: cell-based; conditions: for MIC50 / MIC90 / MIC: Coccidioides immitis; for MIC: read-out: GM MIC
[10] = system: Coccidioides posadasii (n = 24); assay: microbe, parasite or virus in culture; type: cell-based; conditions: for MIC50 / MIC90 / MIC: Coccidioides posadasii; for MIC: read-out: GM MIC
in vivo = conditions: mouse; for AUC(0-t): AUC 0-12

In the case of `OC(Cn1cncn1)(Cn1cncn1)c1ccc(F)cc1F` [fluconazole, reference compound], the “brain fungal burden (mean of combined results)” value (C. immitis [1]) is reported as 1.33 log 10 CFU/g, the median survival time (C. immitis [2]) is reported as 30 days and 28 days and the “rebound in fungal burdens once therapy was stopped” value (C. immitis [3]) is reported as “rebound in fungal burdens”. It also gave an MIC [4] of 16 µg/mL (≈ 52.2 µM).

In the case of `Cc1cc(-c2ccccc2)c(C(=O)C(=O)Nc2ccc(N3CCN(c4ncc(F)cn4)CC3)cc2)n1C` [olorofim, 2-(1,5-dimethyl-3-phenyl-1H-pyrrol-2-yl)-N-(4-(4-(5-fluoropyrimidin-2-yl)piperazin-1-yl)phenyl)-2-oxoacetamide], the “inhibition of dihydroorotate dehydrogenase” value [5] is listed as “little to no inhibition”, the “clinical status at 3 months” value (coccidioidomycosis) is listed as “no longer required the use of oxygen and was able to walk unaided” and the “clinical status at 6 months” value (coccidioidomycosis) is listed as “continues to be asymptomatic 6 months after initiation of olorofim therapy”. The symptomatic response (coccidioidomycosis) was “symptomatic improvements within a few weeks; also recorded: symptomatic improvement within three weeks”, the “time to symptomatic improvement” value (coccidioidomycosis) was no more than 4 weeks and the “Levels in brain compared with plasma” value [6] was “slightly lower than those in plasma”. The “Levels in lung compared with plasma” value [6] was “slightly higher”, the “exposure in females compared with males” value [6] was “slightly higher in females” and the MIC50 [7] was no more than 0.008 µg/mL. For the same compound, the MIC90 [7] was 0.015 µg/mL (≈ 0.0301 µM), the MIC [7] was 0.011 µg/mL (≈ 0.0221 µM) and the “inhibition of dihydroorotate dehydrogenase” value [8] was “little to no inhibition”. For the same compound, the “brain fungal burden (mean CFU count)” value (C. immitis [1]) was 4.36 log 10 CFU/g and 3.41 log 10 CFU/g, the “fungal burdens, three times daily compared to twice daily administration” value (C. immitis [1]) was “further reductions in fungal burdens” and the “day on which mice began to succumb to infection” value (C. immitis [2]) was 18 days. The median survival time (C. immitis [2]) was 22 days and 26 days and 23.5 days and > 30 days, the “percentage of mice that survived to the study endpoint” value (C. immitis [2]) was 80% and the “mice with no fungal colonies in plated whole-brain homogenates” value (C. immitis [3]) was 7 of the 10 and 7 of 10. The MIC range [9] was no more than 0.008 to 0.015 µg/mL, the MIC50 [9] was no more than 0.008 µg/mL and the MIC90 [9] was 0.015 µg/mL (≈ 0.0301 µM). It also gave an MIC [9] of 0.009 µg/mL (≈ 0.0181 µM), an MIC range [10] of no more than 0.008 to 0.015 µg/mL and an MIC50 [10] of no more than 0.008 µg/mL. It also gave an MIC90 [10] of 0.015 µg/mL (≈ 0.0301 µM), an MIC [10] of 0.009 µg/mL (≈ 0.0181 µM) and a Tmax (in vivo; both, Plasma Tmax) of no more than 1 h. It also gave an AUC(0-t) (in vivo; female, po, 10 mg/kg) of 11400 ng·h/mL, a Tmax (in vivo; female, po, 10 mg/kg, Tmax) of 1 h and an AUC(0-t) (in vivo; female, po, 20 mg/kg) of 26600 ng·h/mL. For the same compound, the Cmax (in vivo; female, po, 20 mg/kg) was 4610 ng/mL, the AUC(0-t) (in vivo; female, po, 30 mg/kg) was 30800 ng·h/mL and the Cmax (in vivo; female, po, 30 mg/kg) was 4110 ng/mL. For the same compound, the Tmax (in vivo; female, po, 30 mg/kg, Tmax) was 1 h, the AUC(0-t) (in vivo; male, po, 10 mg/kg) was 8700 ng·h/mL and the Tmax (in vivo; male, po, 10 mg/kg, Tmax) was 0.5 h. For the same compound, the AUC(0-t) (in vivo; male, po, 20 mg/kg) was 22100 ng·h/mL, the Cmax (in vivo; male, po, 20 mg/kg) was 3910 ng/mL and the Tmax (in vivo; male, po, 20 mg/kg, Tmax) was 1 h. The AUC(0-t) (in vivo; male, po, 30 mg/kg) was 27700 ng·h/mL, the Cmax (in vivo; male, po, 30 mg/kg) was 4110 ng/mL and the Tmax (in vivo; male, po, 30 mg/kg, Tmax) was 1 h. It also gave a half-life (in vivo) of roughly 2 h and an MIC [4] of 0.015 µg/mL (≈ 0.0301 µM).

In the case of `C[C@@H](c1ncncc1F)[C@](O)(Cn1cncn1)c1ccc(F)cc1F` [voriconazole, reference compound], the MIC50 [7] is reported as 0.125 µg/mL (≈ 0.358 µM), the MIC90 [7] is reported as 0.25 µg/mL (≈ 0.716 µM) and the MIC [7] is reported as 0.113 µg/mL (≈ 0.323 µM). The MIC range [9] was no more than 0.03 to 0.25 µg/mL, the MIC50 [9] was 0.06 µg/mL (≈ 0.172 µM) and the MIC90 [9] was 0.125 µg/mL (≈ 0.358 µM). The MIC [9] was 0.072 µg/mL (≈ 0.206 µM), the MIC range [10] was no more than 0.03 to 0.25 µg/mL and the MIC50 [10] was 0.125 µg/mL (≈ 0.358 µM). The MIC90 [10] was 0.125 µg/mL (≈ 0.358 µM), the MIC [10] was 0.103 µg/mL (≈ 0.295 µM) and the MIC [4] was 0.125 µg/mL (≈ 0.358 µM).
